Reference: patent US20170234860A1, “SEQUENCE AND CHIRAL SELECTIVITY OF DNA-DRUG INTERACTIONS REVEALED BY FORCE SPECTROSCOPY” (UNIVERSITY OF HOUSTON SYSTEM, priority 2014, published 2017)

Experiments:
[1] = test system: DNA duplex 5′-CGCGAAAAACGCG-3′; test: FIRMS binding force of groove-binding drugs with DNA; conditions: for binding force of DNA with drug: DNA alone 59 pN
Experimental: (§1) Some embodiments of the method of using a differential binding force to quantify the efficiency of a drug molecule to a receptor comprises a process wherein one strand of the DNA duplex is immobilized on a surface, while the other is labeled with a magnetic particle. The binding forces of the DNA duplex are measured in the absence and presence of the drug molecule, denoted as F1 and F2, respectively. The differential binding force, F2-F1, characterizes the influence of the drug-DNA binding on the stability of the DNA. The binding forces are obtained using the FIRMS technique, depicted in FIG. 1.
The method of differential binding force can also be used to quantify a different binding mode of DNA-drug interactions. We chose two groove-binding drugs, netropsin and berenil. The groove-binding interaction is different from the intercalation interaction of daunomycin and THP. Shown in FIG. 6 are the binding forces of DNA alone, DNA with netropsin, and DNA with berenil, with values of 59, 63, and 73 pN, respectively. The DNA sequence was 5′-CGCGAAAAACGCG-3′ (SEQ. 5). The binding forces yield differential binding force of 4 pN for netropsin and 14 pN for berenil.

[2] = test system: DNA duplex 5′-CCC GGG TTT CCC-3′ / 3′-GGG CCC AAT GGG-5′ containing a T-T pair; test: FIRMS binding force of the T-Hg-T system (DNA duplex with T-T pair)
Experimental: as §1
(§2) Magnetic particles M280 were used to label one strand of the DNA duplexes as previously characterized.^16] After initial magnetization by a permanent magnet, the magnetic signal of the particles were detected by an atomic magnetometer, with a sensitivity of 200 fT/(Hz)^1/2. Sample wells (4×2×1 mm^3) with a biotin-coated bottom surface were used to immobilize the other strand of the DNA duplexes. Mechanical forces were applied using a centrifuge (Eppendorf 5417R).
The sample well, with dimensions of 4×2×1 mm^3 (L×W×D), was coated with biotin on the bottom surface. An aqueous solution of 0.625 mg/mL streptavidin was loaded into the sample well and incubated for 1 hr. Then the sample well was rinsed three times with a buffer solution as described below. […]

[3] = test system: DNA1 (5′-CCC AAT CGA CCC-3′ with complementary strand 5′-GGG TCG ATT GGG-3′); test: FIRMS binding force of drug with DNA1
Experimental: as §1
as §2, with “Mechanical forces were applied using a centrifuge (Eppendorf 5417R).” left out
(§3) DNA Intercalation is widely considered as its binding mode, although minor groove binding has also been discussed,^[24] however, the specificity has previously not been quantified by binding strength. […] As a control experiment the differential binding force of daunomycin with a different DNA duplex, DNA2, with sequence 5′-CCC GGG TTT CCC-3′ and its complementary strand was measured.

[4] = test system: DNA2 (5′-CCC GGG TTT CCC-3′ and its complementary strand); test: FIRMS binding force of drug with DNA2
Experimental: as §1
as §2, with “Mechanical forces were applied using a centrifuge (Eppendorf 5417R).” left out
as §3

## CC(=O)NCC(=O)O.CC(=O)NCC(=O)O.N=C(N)c1ccc(N=NNc2ccc(C(=N)N)cc2)cc1 [berenil]
[1]
  differential binding force (F2-F1): 14 pN
  binding force of DNA with drug: 73 pN

## Cn1cc(NC(=O)c2cc(NC(=O)CN=C(N)N)cn2C)cc1C(=O)NCCC(=N)N [netropsin]
[1]
  differential binding force (F2-F1): 4 pN
  binding force of DNA with drug: 63 pN

## [Hg+2] [Hg]
[2]; DNA alone 40 pN, HEPES buffer pH 7.6
  binding force of the DNA duplex upon binding: 54 pN
[2]; increase over DNA alone
  differential binding force (F2-F1): 14 pN

## COc1cccc2c1C(=O)c1c(O)c3c(c(O)c1C2=O)C[C@@](O)(C(C)=O)C[C@@H]3O[C@H]1C[C@H](N)[C@H](O)[C@H](C)O1 [daunomycin]
[3]
  differential binding force (F2-F1): 12 pN
[3]; DNA alone 45 pN (daunomycin, TE buffer) or 44 pN (THP, BPES buffer)
  binding force of DNA1 with drug: 57 pN
[4]
  differential binding force (F2-F1): no significant force difference
[4]; DNA alone 51 pN
  binding force of DNA2 with drug: 52 pN
